# US20150250174A1, “USE OF N-THIO-ANTHRANILAMIDE COMPOUNDS ON CULTIVATED PLANTS” (BASF SE, priority 2012, published 2015)
# Assays:
# [1] = test system: Anticarsia gemmatalis; assay: Another test on a non-GM soybean variety (feeding damage); format: in vivo; conditions: 12.5 g a.i./ha
# [2] = test system: Anticarsia gemmatalis; conditions: 12.5 g a.i./ha; 5 days after application; GMO soybean BMX Potencia RR
# [3] = test system: Anticarsia gemmatalis; assay: whole plant or invertebrate; conditions: in Glycine max, 48 h, read-out: mortality 2 DAA
smiles,measurement,setting,value
"CCS(CC)=NC(=O)c1cc(Cl)cc(C)c1NC(=O)c1cc(C(F)(F)F)nn1-c1ncccc1Cl [compound I-11, 2-(3-chloro-2-pyridyl)-N-[2-methyl-4-chloro-6-[(diethyl-λ^4-sulfanylidene)carbamoyl]phenyl]-5-(trifluoromethyl)pyrazole-3-carboxamide]",reduction in feeding damage compared to the untreated controls,[1],97%
same,reduction of feeding damage compared to the untreated controls,[2],100%
same,mortality at 6.25 g/ha,[3],83%
same,mortality at 50 g/ha,[3],87%
